Measurements reported in paper PMC8154581, “Discovery of Novel Thiophene-arylamide Derivatives as DprE1 Inhibitors with Potent Antimycobacterial Activities” (Journal of Medicinal Chemistry, 2021).
Converted amounts (≈) assume the structure as drawn. Like-named read-outs stand apart in the source and are kept apart here.

Key:
M. tuberculosis H37Rv = test: MIC against replicating M. tuberculosis H37Rv, microplate Alamar blue assay (MABA); format: cell-based
Vero cells = test: Cytotoxicity assay in Vero cells (MTT); format: cell-based; conditions: for IC50: Chlorocebus sabaeus, Vero cells, 48 h, read-out: IC50 (Vero)
[1] = Mycobacterium tuberculosis, H37RV, against M. tuberculosis H37Rv, Tables 1-3, read-out: MIC
[2] = Mycobacterium tuberculosis, H37RV, supplementary CSV, same values as Tables 1-3, read-out: Minimal inhibit concentration
[3] = against M. tuberculosis H37Rv, Tables 1-3
[4] = Mycobacterium tuberculosis, H37RV, against M. tuberculosis H37Rv, Tables 1-3

Compound | MIC (M. tuberculosis H37Rv; [1]) [µg/mL] | MIC (M. tuberculosis H37Rv; [2]) [µg/mL] | melting point [°C] | MIC (M. tuberculosis H37Rv; [3]) [µg/mL] | SI (Vero cells) | IC50 (Vero cells) [µg/mL] | MIC (M. tuberculosis H37Rv; [4]) [µg/mL] | Minimal inhibit concentration (M. tuberculosis H37Rv; supplementary CSV, same values as Tables 1-3) [µg/mL] | MIC (M. tuberculosis H37Rv; Mycobacterium tuberculosis, H37RV, Table 4, read-out: MIC H37Rv) [µg/mL]
Cc1cnc(NC(=O)c2ccsc2NC(=O)c2ccc(C(=O)N3CCCCC3)cc2)s1 [Compound 25i, N-(5-Methylthiazol-2-yl)-2-(4-(piperidine-1-carbonyl)benzamido)thiophene-3-carboxamide] | > 32 | > 32 | 236 to 238 | – | – | – | – | – | –
CCCNC(=O)c1ccc(C(=O)Nc2sccc2C(=O)NC(=O)OCC)cc1 [Compound 23a, Ethyl (2-(4-(Propylcarbamoyl)benzamido)thiophene-3-carbonyl)carbamate] | 0.2 (≈ 0.496 µM) | 0.2 (≈ 0.496 µM) | 219 to 220 | 0.20 (≈ 0.496 µM) | >320 | > 64 | – | – | –
COC(=O)C1CCN(C(=O)c2ccsc2NC(=O)c2ccc(C(=O)N3CCCCC3)cc2)CC1 [Compound 25f, Methyl 1-(2-(4-(Piperidine-1-carbonyl)benzamido)thiophene-3-carbonyl)piperidine-4-carboxylate] | 15.5 (≈ 32.1 µM) | 15.5 (≈ 32.1 µM) | 169 to 170 | – | – | – | – | – | –
Cc1ccnc(NC(=O)c2ccsc2NC(=O)c2ccc(C(=O)N3CCCCC3)cc2)n1 [Compound 25j, N-(4-Methylpyrimidin-2-yl)-2-(4-(piperidine-1-carbonyl)benzamido)thiophene-3-carboxamide] | – | 1.94 (≈ 4.32 µM) | 177 to 178 | – | – | 51.9 (≈ 115 µM) | 1.94 (≈ 4.32 µM) | – | –
CCOC(=O)NC(=O)c1ccsc1NC(=O)c1ccc(C(=O)N2CCCCC2)cc1[N+](=O)[O-] [Compound 24e, Ethyl (2-(2-Nitro-4-(piperidine-1-carbonyl)benzamido)thiophene-3-carbonyl)carbamate] | 1.86 (≈ 3.92 µM) | 1.86 (≈ 3.92 µM) | 113 to 114 | – | >34 | > 64 | – | – | –
CCOC(=O)NC(=O)c1ccsc1NC(=O)c1ccc(C(=O)NC2CCCCC2)cc1 [Compound 23e, Ethyl (2-(4-(Cyclohexylcarbamoyl)benzamido)thiophene-3-carbonyl)carbamate] | 0.5 (≈ 1.13 µM) | 0.5 (≈ 1.13 µM) | > 250 | – | >128 | > 64 | – | – | –
CCOC(=O)NC(=O)c1ccsc1NC(=O)c1cc(C(=O)N2CCCCC2)c[nH]1 [Compound 24l, Ethyl (2-(4-(Piperidine-1-carbonyl)-1H-pyrrole-2-carboxamido)thiophene-3-carbonyl)carbamate] | 1.77 (≈ 4.23 µM) | 1.77 (≈ 4.23 µM) | 183 to 184 | – | – | – | – | – | –
CCOC(=O)NC(=O)c1ccsc1NC(=O)c1cccc(C(=O)N2CCCCC2)c1 [Compound 24a, Ethyl (2-(3-(Piperidine-1-carbonyl)benzamido)thiophene-3-carbonyl)carbamate] | 3.7 (≈ 8.61 µM) | 3.7 (≈ 8.61 µM) | – | – | – | – | – | – | –
CCOC(=O)NC(=O)c1ccsc1NC(=O)c1ccc(C(=O)N2CCCCC2)cc1F [Compound 24b, Ethyl (2-(2-Fluoro-4-(piperidine-1-carbonyl)benzamido)thiophene-3-carbonyl)carbamate] | 0.12 (≈ 0.268 µM) | 0.12 (≈ 0.268 µM) | – | – | – | > 64 | – | – | –
CCOC(=O)NC(=O)c1ccsc1NC(=O)c1ccc(C(=O)N2CCCCC2)cc1Br [Compound 24d, Ethyl (2-(2-Bromo-4-(piperidine-1-carbonyl)benzamido)thiophene-3-carbonyl)carbamate] | 0.49 (≈ 0.964 µM) | 0.49 (≈ 0.964 µM) | 144 to 145 | – | >131 | > 64 | – | – | –
Cc1cnc(NC(=O)c2ccsc2NC(=O)c2ccc(C(=O)N3CCCCC3)cc2)cn1 [Compound 25m, N-(5-Methylpyrazin-2-yl)-2-(4-(piperidine-1-carbonyl)benzamido)thiophene-3-carboxamide] | > 32 | > 32 | 177 to 179 | – | – | – | – | – | –
N-(4-Methylpyridin-2-yl)-2-(4-(piperidine-1-carbonyl)benzamido)thiophene-3-carboxamide [Compound 25o] | – | – | – | >32 | – | – | – | >32 | –
Cc1cccc(NC(=O)c2ccsc2NC(=O)c2ccc(C(=O)N3CCCCC3)cc2)n1 [Compound 25n, N-(6-Methylpyridin-2-yl)-2-(4-(piperidine-1-carbonyl)benzamido)thiophene-3-carboxamide] | > 32 | > 32 | 171 to 174 | – | – | – | – | – | –
CCOC(=O)NC(=O)c1ccsc1NC(=O)c1ccc(C(=O)Nc2ccccc2)cc1 [Compound 23g, Ethyl (2-(4-(Phenylcarbamoyl)benzamido)thiophene-3-carbonyl)carbamate] | 0.12 (≈ 0.274 µM) | 0.12 (≈ 0.274 µM) | > 250 | – | 191 | 23 (≈ 52.5 µM) | – | – | –
COC(=O)N1CCN(C(=O)c2ccsc2NC(=O)c2ccc(C(=O)N3CCCCC3)cc2)CC1 [Compound 25g, Methyl 4-(2-(4-(Piperidine-1-carbonyl)benzamido)thiophene-3-carbonyl)piperazine-1-carboxylate] | > 32 | > 32 | 113 to 114 | – | – | – | – | – | –
CCOC(=O)NC(=O)c1ccsc1NC(=O)c1ccc(C(=O)N2CCCC2)cc1 [Compound 23i, Ethyl (2-(4-(Pyrrolidine-1-carbonyl)benzamido)thiophene-3-carbonyl)carbamate] | 0.2 (≈ 0.481 µM) | 0.2 (≈ 0.481 µM) | – | – | – | > 64 | – | – | –

Compound | MIC (M. tuberculosis H37Rv; [1]) [µg/mL] | MIC (M. tuberculosis H37Rv; [2]) [µg/mL] | melting point [°C] | MIC (M. tuberculosis H37Rv; [3]) [µg/mL] | SI (Vero cells) | IC50 (Vero cells) [µg/mL] | MIC (M. tuberculosis H37Rv; [4]) [µg/mL] | Minimal inhibit concentration (M. tuberculosis H37Rv; supplementary CSV, same values as Tables 1-3) [µg/mL] | MIC (M. tuberculosis H37Rv; Mycobacterium tuberculosis, H37RV, Table 4, read-out: MIC H37Rv) [µg/mL]
NC(=O)c1ccsc1NC(=O)c1ccc(C(=O)N2CCCCC2)cc1 [Compound 25d, 2-(4-(Piperidine-1-carbonyl)benzamido)thiophene-3-carboxamide] | > 32 | > 32 | – | – | – | – | – | – | –
COC(=O)C1CN(C(=O)c2ccsc2NC(=O)c2ccc(C(=O)N3CCCCC3)cc2)C1 [Compound 25e, Methyl 1-(2-(4-(Piperidine-1-carbonyl)benzamido)thiophene-3-carbonyl)azetidine-3-carboxylate] | > 32 | > 32 | 154 to 155 | – | – | – | – | – | –
CCOC(=O)NC(=O)c1ccsc1NC(=O)c1ccc(C(=O)NC2CCC(C)(C)CC2)cc1 [Compound 23f, Ethyl (2-(4-((4,4-Dimethylcyclohexyl)carbamoyl)benzamido)thiophene-3-carbonyl)carbamate] | 0.94 (≈ 1.99 µM) | 0.94 (≈ 1.99 µM) | > 250 | – | >68 | > 64 | – | – | –
CCOC(=O)NC(=O)c1ccsc1NC(=O)c1ccc(C(=O)N2CCCCC2)c(C)c1 [Compound 24g, Ethyl (2-(3-Methyl-4-(piperidine-1-carbonyl)benzamido)thiophene-3-carbonyl)carbamate] | – | 0.12 (≈ 0.271 µM) | – | – | – | 53.1 (≈ 120 µM) | 0.12 (≈ 0.271 µM) | – | –
Cc1ccc2sc(NC(=O)c3ccsc3NC(=O)c3ccc(C(=O)N4CCCCC4)cc3)nc2c1 [Compound 25q, N-(5-Methylbenzo[d]thiazol-2-yl)-2-(4-(piperidine-1-carbonyl)benzamido)thiophene-3-carboxamide] | > 32 | > 32 | > 250 | – | – | – | – | – | –
CCOC(=O)NC(=O)c1ccsc1NC(=O)c1ccc(C(=O)N2CCC(C)CC2)cc1 [Compound 23l, Ethyl (2-(4-(4-Methylpiperidine-1-carbonyl)benzamido)thiophene-3-carbonyl)carbamate] | 0.03 (≈ 0.0676 µM) | 0.03 (≈ 0.0676 µM) | – | – | – | > 64 | – | – | –
CCOC(=O)N1CCN(C(=O)c2ccsc2NC(=O)c2ccc(C(=O)N3CCCCC3)cc2)CC1 [Compound 25h, Ethyl 4-(2-(4-(Piperidine-1-carbonyl)benzamido)thiophene-3-carbonyl)piperazine-1-carboxylate] | > 32 | > 32 | 134 to 135 | – | – | – | – | – | –
CCOC(=O)NC(=O)c1ccsc1NC(=O)c1ccc(C(=O)N2CCCCCC2)cc1 [Compound 23k, Ethyl (2-(4-(Azepane-1-carbonyl)benzamido)thiophene-3-carbonyl)carbamate] | 0.22 (≈ 0.496 µM) | 0.22 (≈ 0.496 µM) | – | – | – | 48.4 (≈ 109 µM) | – | – | –
CCOC(=O)NC(=O)c1ccsc1NC(=O)c1ccc(C(=O)N2CCC(F)(F)CC2)cc1 [Compound 23n, Ethyl (2-(4-(4,4-Difluoropiperidine-1-carbonyl)benzamido)thiophene-3-carbonyl)carbamate] | 0.25 (≈ 0.537 µM) | 0.25 (≈ 0.537 µM) | – | – | – | > 64 | – | – | –
CCNC(=O)NC(=O)c1ccsc1NC(=O)c1ccc(C(=O)N2CCCCC2)cc1 [Compound 25c, N-(Ethylcarbamoyl)-2-(4-(piperidine-1-carbonyl)benzamido)thiophene-3-carboxamide] | > 32 | > 32 | 223 to 224 | – | – | – | – | – | –
Cc1cc(C)nc(NC(=O)c2ccsc2NC(=O)c2ccc(C(=O)N3CCCCC3)cc2)n1 [Compound 25p, N-(4,6-Dimethylpyrimidin-2-yl)-2-(4-(piperidine-1-carbonyl)benzamido)thiophene-3-carboxamide] | > 32 | > 32 | 189 to 190 | – | – | – | – | – | –
COc1nc2ccc(Br)cc2cc1[C@@H](c1ccccc1)[C@@](O)(CCN(C)C)c1cccc2ccccc12 [bedaquiline, reference compound] | – | – | – | – | – | – | – | – | 0.036 (≈ 0.0648 µM)
CCOC(=O)NC(=O)c1ccsc1NC(=O)c1ccc(-c2ccc(C(=O)N3CCCCC3)cc2)cc1 [Compound 24i, Ethyl (2-(4′-(Piperidine-1-carbonyl)-[1,1′-biphenyl]-4-carboxamido)thiophene-3-carbonyl)carbamate] | 7.76 (≈ 15.3 µM) | 7.76 (≈ 15.3 µM) | – | – | – | – | – | – | –
CCOC(=O)NC(=O)c1ccsc1NC(=O)c1ccc2cc(C(=O)N3CCCCC3)ccc2c1 [Compound 24h, Ethyl (2-(6-(Piperidine-1-carbonyl)-2-naphthamido)thiophene-3-carbonyl)carbamate] | 3.13 (≈ 6.53 µM) | 3.13 (≈ 6.53 µM) | 177 to 178 | – | – | – | – | – | –
CCOC(=O)NC(=O)c1ccsc1NC(=O)c1ccc(C(=O)N2CCOCC2)cc1 [Compound 23o, Ethyl (2-(4-(Morpholine-4-carbonyl)benzamido)thiophene-3-carbonyl)carbamate] | 1.66 (≈ 3.85 µM) | 1.66 (≈ 3.85 µM) | 159 to 160 | – | – | – | – | – | –
